Data published in patent US20110269790A1, “NOVEL THIENOPYRIDINES AS PHARMACOLOGICALLY ACTIVE AGENTS” (priority 2009, published 2011).
“And” between values parts separate entries of the source, which are not always exact repeats. Equal entries are not always repeated.

Tests used:
rats = assay: Collagen induced arthritis; format: in vivo, rat; conditions: collagen induced study; BN compounds 100 mg/kg, Indomethacin 2.5 mg/kg
Text: Group I—Normal Control; Group II—Arthritic control; Group III—Arthritic rats administered with Synthetic compound BN-4; Group IV—arthritic rats administered with compound BN-14; Group V—arthritic rats administered with BN-16; Group VI—arthritic rats administered with standard drug indomethacin. […] The test and indomethacin doses continued up to 21 days in FCA induced model and 24 days in collagen induced model. […] Before sacrificing the animals, blood was collected and used for estimation of total leukocyte count, TNF-α and IL-1β. […] In collagen induced study the total WBC count was analyzed by using cell counter and count as follows; […]

[1] = Acute oral toxicity, main study in mice; conditions: both sexes, mouse, in vivo, single oral dose, read-out: Maximum tolerated dose
Description: (§1) In the preliminary sighting study, the effect of various dosed administered to single animals of each sex was investigated in a sequential manner. The sighting study generally yields information on the dose-toxicity relationship including an estimate of the minimum lethal dose. In the main study, the test article is administered to groups of 5 males and 5 female animals at one of the fixed doses (5, 50, 500 and 2000 mg/Kg). The dose is derived from the sighting study. It is immediately below that which is expected to result in mortality. If evident toxicity is not seen at the chosen dose level, the substance should be retested at the next higher dose level. If at the initial dose level, animals die, or a severe toxicity reaction requires removal of animals from the study for animal welfare reasons, the substance is retested at the next lower dose level. Consideration of data from the both sighting study and the main study enabled a judgment to be made on determination of maximum tolerated dose.
(§2) At least 10 animals (5 males and 5 females) for each species were used for dose level in this study. Animals were fasted overnight and test articles were administered as 1% gum acacia suspension orally. The dose used in this study is selected from one of four levels 5 mg/kg, 50 mg/kg, 500 mg/kg and 2000 mg/kg i.e. the dose that produced evident toxicity but not mortality in sighting study. […] Different biochemical and hematology parameters observed on “0’ day and on termination day .During main study physical parameters like feed consumption and body weight increase were also recorded. 5 males and females were taken, and toxicity study conducted for the compounds. […] Hematology and biochemical parameters were well and within normal range when compared with 0 day in rats and mice. Based on above observations synthetic compounds were safe upto 2000 mg/kg.

Wistar rats [2] = assay: Arachidonic acid induced paw edema; format: in vivo, rat; conditions: one hour after Arachidonic acid
Description: Paw edema was produced in rats by Arachidonic acid following the method of Dimartino et al. (1987) and Laura segura et al., 1998. wistar rats weighing between 130-150 g were divided in to groups of six animals (n=6).A volume of 0.1 ml of 0.5% Arachidonic acid in 0.2M Carbonate buffer was injected in to the plantar side of the right hind paw of the rat. Paw volumes were measured using plethysmometer before and after one hour Arachidonic acid injection. Results obtained were compared with those obtained from the control group, which received vehicle only.

Wistar rats [3] = assay: Freund's complete adjuvant (FCA) induced arthritis; format: in vivo, rat; conditions: BN compounds 100 mg/kg; for % Of inhibition, 5th Day / % Of inhibition, 12th Day / % Of inhibition, 18th Day / Body weight index, 21st DAY / Paw volume, 5th Day / Paw volume, 12th Day / Paw volume, 18th Day / Paw volume, 21st Day: indomethacin 2.5 mg/kg daily; for Body weight index, 21st DAY / Body weight index, 1st DAY: FCA study; for Paw volume, 5th Day / Paw volume, 12th Day / Paw volume, 18th Day / Paw volume, 21st Day: in mL (unit assumed); for Body weight index, 1st DAY: indomethacin 2.5 mg/kg; for Total WBC count: termination day, FCA model, Indomethacin 2.5 mg/kg
Description: Induction of Arthritis: Arthritis was induced by injecting Freund's complete adjuvant (FCA. Required quantity of FCA was weighed and suspension made with paraffin oil (DIFCO Laboratories) and administered at dose of 0.5 mg/rat in subplantar region of the right hind paw. After 7 days, a booster injection was given to all animals to hind paws.
Experimental Design Animals were divided into 6 groups of 6 rats each and were designated as:
(§3) Group I—Normal Control; Group II—Arthritic control; Group III—Arthritic rats administered with Synthetic compound BN-4; Group IV—arthritic rats administered with compound BN-14; Group V—arthritic rats administered with BN-16; Group VI—arthritic rats administered with standard drug indomethacin. Administration of test compounds and indomethacin started on the same day of adjuvant injection at the dose of 100 and 2.5 mg/kg respectively. The test and indomethacin doses continued up to 21 days in FCA induced model and 24 days in collagen induced model. During the study period the paw volumes were measured on 5th, 12th, 18th and 21 st days and the weight of the animals was also recorded at different time intervals. At each time point the percentage of inhibition of paw volume was calculated with reference to mean paw volume of control group In FCA model, animals were sacrificed on 21st day by cervical dislocation. Before sacrificing the animals, blood was collected and used for estimation of total leukocyte count, TNF-α and IL-1β.
Clinical Assessment of Adjuvant arthritis: Rats were examined for visual appearance of arthritis and the lesion of erythema and inflammation of periarticular tissues on 14th day, 18th day and on 21st day. Arthritis scoring scale as follows:
2=Mild swelling and erythema of the limb 3=Gross swelling and erythema of the limb 4=Gross deformity and inability to use the limb
The arthritis score of each rat was the sum of the scores of both hind limbs and maximum score was being 8 for each rat.

Wistar rats [4] = assay: Dextran induced rat paw edema model; format: in vivo; conditions: 3 hrs after Dextran
Description: Anti-inflammatory activity of test compounds was evaluated in Wistar rats employing method of Winter et al (1963) and Diwan et al (1989). Over night fasted rats were grouped into different test groups and standard group consisting 6 animals in each group. Test compounds were administered orally one hour before dextran challenge as gum acacia suspension. Animals in the standard group received Indomethacin at dose of 10 mg/kg. After one hour dextran was injected into the right hind paw by sub plantar route. A zero hour paw volume was measured for the rats using digital plethysmometer (Ugo Basile, Italy) before the administration of Dextran for all groups. Paw volumes were again measured 3 hrs after the challenge of Dextran. The percent inhibition of paw volume for each rat in treated groups was calculated by comparing with mean paw volume of control group and expressed as mean (±SE) percent inhibition of paw volume for each test group.

[5] = Acute oral toxicity, main study in rats; conditions: both sexes, Albino Wistar, rat, in vivo, single oral dose, read-out: Maximum tolerated dose
Description: as §1, §2

TNF-α = TNF-α in rat paw tissue, FCA model (ELISA); format: in vivo; conditions: termination day
Description: as §3
In FCA induced study paw tissues were collected on termination day and estimated TNF-α and IL-1β levels for all the groups by ELISA method.

Row | SMILES | Total WBC count (rats) | MTD at 14 days [1] [mg/kg] | % Inhibition (Wistar rats [2]; 50 mg/kg) [%] | Percentage Swelling (50 mg/kg) (Wistar rats [2]; 50 mg/kg) [%] | % Inhibition (Wistar rats [2]; 100 mg/kg) [%] | Percentage Swelling (100 mg/kg) (Wistar rats [2]; 100 mg/kg) [%] | % Inhibition (Wistar rats [2]; 200 mg/kg) | Percentage Swelling (200 mg/kg) (Wistar rats [2]; 200 mg/kg) [%] | % Of inhibition, 5th Day (Wistar rats [3]) [%] | % Of inhibition, 12th Day (Wistar rats [3]) [%] | % Of inhibition, 18th Day (Wistar rats [3]) [%] | Body weight index, 21st DAY (Wistar rats [3]) | Paw volume, 5th Day (Wistar rats [3]) | Paw volume, 12th Day (Wistar rats [3]) | Paw volume, 18th Day (Wistar rats [3]) | Paw volume, 21st Day (Wistar rats [3]) | Body weight index, 1st DAY (Wistar rats [3]) | Total WBC count (Wistar rats [3]) | % Inhibition (Wistar rats [4]; 50 mg/kg oral) [%] | % Inhibition (TNF-α) (TNF-α) [%] | further results
1 | Cc1sc2nc3c(c(N)c2c1C)CCCCC3 [BN-4, 2,3-dimethyl-6,7,8,9-tetrahydro-5H-cyclohepta[b]thieno[3,2-e]pyridin-4-amine] | 13.57±0.63 | > 2000 | 19.13 ± 2.01 | 55.32 ± 2.06 | 29.94 ± 3.37 | 48.54 ± 2.2 | 44.92% and 44.92 ± 3.10% | 37.50 ± 1.60 | 36.41 ± 3.84 | 42.88 ± 8.45 | 40.71 ± 7.59 | 199.87 ± 4.76 | 1.51 ± 0.09 | 1.42 ± 0.21 | 1.55 ± 0.20 | 1.63 ± 0.12 | 155.15 ± 3.1 | 18.53±1.36 | 12.17 ± 1.14 | 42.9 ± 3.78 | Percentage Swelling (50 mg/kg) (Wistar rats [4]; 50 mg/kg oral): 69.96 ± 4.06 %; % Inhibition (Wistar rats [4]; 100 mg/kg oral): 13.57 ± 1.71%; Percentage Swelling (100 mg/kg) (Wistar rats [4]; 100 mg/kg oral): 50.01 ± 1.09 %; % Inhibition (Wistar rats [4]; 200 mg/kg oral): 32.71 ± 4.45%; Percentage Swelling (200 mg/kg) (Wistar rats [4]; 200 mg/kg oral): 38.52 ± 2.60 %; MTD at 14 days [5]: > 2000 mg/kg
2 | Nc1c2c(nc3sc4c(c13)CCC4)CCCC2 [BN-14, 2,3,6,7,8,9-Hexahydro-1H-cyclopenta[4,5]thieno[2,3-b]quinolin-10-amine] | 14.88±2.64 | 1250 | 24.21 ± 3.89 | 50.56 ± 3.12 | 33.6 ± 3.11 | 45.64 ± 2.0 | 41.37% and 41.37 ± 2.40% | 38.70 ± 1.60 | 19.47 ± 1.38 | 37.90 ± 4.12 | – | 201.51 ± 6.61 | 1.92 ± 0.03 | 1.54 ± 0.10 | 1.51 ± 0.14 | 1.40 ± 0.02 | 158.02 ± 2.51 | 19.70±0.66 | 21.29 ± 4.69 | 38.03 ± 9.73 | Percentage Swelling (50 mg/kg) (Wistar rats [4]; 50 mg/kg oral): 65.36 ± 2.91a %; % Inhibition (Wistar rats [4]; 100 mg/kg oral): 24.83 ± 0.47%; Percentage Swelling (100 mg/kg) (Wistar rats [4]; 100 mg/kg oral): 41.63 ± 2.78 %; % Inhibition (Wistar rats [4]; 200 mg/kg oral): 38.54 ± 4.26%; Percentage Swelling (200 mg/kg) (Wistar rats [4]; 200 mg/kg oral): 36.09 ± 2.79 %; MTD at 14 days [5]: 1060 mg/kg
3 | Nc1c2c(nc3sc4c(c13)CCC4)CCCCC2 [BN-16, 1,2,3,6,7,8,9,10-Octahydrocyclohepta[b]cyclopenta[4,5]thieno[3,2-e]pyridine-11-amine] | 15.70±1.28 | > 2000 | 21.72 ± 2.80 | 52.32 ± 2.37 | 34.10 ± 2.82 | 44.95 ± 2.0 | 45.63% and 45.63 ± 2.87% | 36.30 ± 1.80 | 23.95 ± 4.49 | 39.11 ± 1.68 | 37.53 ± 09.04 | 206.38 ± 4.76 | 1.81 ± 0.11 | 1.51 ± 0.10 | 1.64 ± 0.13 | 1.59 ± 0.09 | 157.85 ± 2.08 | 17.3±1.63 | 18.30 ± 3.25 | 37.42 ± 5.57 | Percentage Swelling (50 mg/kg) (Wistar rats [4]; 50 mg/kg oral): 61.80 ± 1.18a %; % Inhibition (Wistar rats [4]; 100 mg/kg oral): 30.90 ± 4.32%; Percentage Swelling (100 mg/kg) (Wistar rats [4]; 100 mg/kg oral): 40.09 ± 4.24 %; % Inhibition (Wistar rats [4]; 200 mg/kg oral): 41.00 ± 3.86%; Percentage Swelling (200 mg/kg) (Wistar rats [4]; 200 mg/kg oral): 31.85 ± 2.09 %; MTD at 14 days [5]: > 2000 mg/kg
4 | COc1ccc2c(c1)c(CC(=O)O)c(C)n2C(=O)c1ccc(Cl)cc1 [Indomethacin, reference compound] | 19.70±2.23 | – | – | – | – | – | – | – | 37.25 ± 2.36 | 45.43 ± 3.56 | 45.80 ± 6.09 | 182.68 ± 4.91 | 1.49 ± 0.06 | 1.35 ± 0.09 | 1.42 ± 0.02 | 1.43 ± 0.08 | 157.85 ± 2.08 | 20.67±0.59 | – | 29.06 ± 0.06 | –
